Experimental data: patent publication US9211310B2, “Use of a Chinese medicine composition in preparing medicaments for treating secondary prevention of myocardial infarction” (TASLY PHARMACEUTICAL GROUP CO., LTD, priority 2010, dated 2015)

Test system: patients after acute myocardial infarction
Assay: TCM symptom score, total and single (chest pain, chest tightness, short breath, fatigue, palpitation, spontaneous perspiration, pale complexion), same clinical trial
Format: in vivo, human
Set-up: total score of TCM symptom, Mean / total score of TCM symptom, Min / total score of TCM symptom, Max / total score of TCM symptom, Md / change of total score of TCM symptom, Mean / change of total score of TCM symptom, Max / change of total score of TCM symptom, Md: scale not given here
Settings: PP
Source text: 3508 patients who were in accordance with the diagnostic standards of AMI for 28 days to 2 years and differentiated as Qi deficiency and blood stagnation syndrome by TCM were studied. 0.5 g Chinese medicine composition prepared by the method of EXAMPLE 1 (Coded as QSYQ) was administrated half an hour after meal, 3 times per day.
They included the overall survival time, angina pectoris score, TCM symptom score and life quality score, where angina pectoris score, TCM symptom score and life quality score were evaluated at randomization, in 1st, 3rd, 6th, 9th, 12th month after treatment and 18th month after follow-up.
The analysis method referred to the angina pectoris score.

[1] = 1 month after treatment-baseline
[2] = 3 month after treatment-baseline
[3] = 3 months after treatment-baseline

Compound: CC(=O)Oc1ccccc1C(=O)O [Control group, aspirine]
- change of palpitation −3, number of patients [1]: 0
- change of palpitation −3, percent of patients [1]: (0.00%)
- change of short breath 0, % of patients [1]: (77.53%)
- change of short breath 0, number of patients [1]: 1132
- change of short breath 2, % of patients [1]: (14.59%)
- change of short breath 2, number of patients [1]: 213
- change of short breath 4, % of patients [1]: (1.71%)
- change of short breath 4, number of patients [1]: 25
- change of short breath 6, % of patients [1]: (0.41%)
- change of short breath 6, number of patients [1]: 6
- change of short breath −2, % of patients [1]: (5.27%)
- change of short breath −2, number of patients [1]: 77
- change of short breath −4, % of patients [1]: (0.48%)
- change of short breath −4, number of patients [1]: 7
- change of short breath −6, % of patients [1]: (0.00%)
- change of short breath −6, number of patients [1]: 0
- change of spontaneous perspiration 0, number of patients [1]: 1068
- change of spontaneous perspiration 0, percent of patients [1]: (73.15%)
- change of spontaneous perspiration 1, number of patients [1]: 238
- change of spontaneous perspiration 1, percent of patients [1]: (16.30%)
- change of spontaneous perspiration 2, number of patients [1]: 48
- change of spontaneous perspiration 2, percent of patients [1]: (3.29%)
- change of spontaneous perspiration 3, number of patients [1]: 12
- change of spontaneous perspiration 3, percent of patients [1]: (0.82%)
- change of spontaneous perspiration −1, number of patients [1]: 77
- change of spontaneous perspiration −1, percent of patients [1]: (5.27%)
- change of spontaneous perspiration −2, number of patients [1]: 14
- change of spontaneous perspiration −2, percent of patients [1]: (0.96%)
- change of spontaneous perspiration −3, number of patients [1]: 3
- change of spontaneous perspiration −3, percent of patients [1]: (0.21%)
- change of total score of TCM symptom, Max [1]: 24.00
- change of total score of TCM symptom, Md [1]: −1.00
- change of total score of TCM symptom, Mean [1]: −2.00
- change of total score of TCM symptom, Min [1]: −28.00
- change of total score of TCM symptom, Max [2]: 19.00
- change of total score of TCM symptom, Md [2]: −2.00
- change of total score of TCM symptom, Mean [2]: −3.05
- change of total score of TCM symptom, Min [2]: −28.00
- distribution of total score of TCM symptom: Medium, number of patients (3 months after treatment): 489
- distribution of total score of TCM symptom: Medium, percentage of patients (3 months after treatment): (33.79%)
- distribution of total score of TCM symptom: Mild, number of patients (3 months after treatment): 946
- distribution of total score of TCM symptom: Mild, percentage of patients (3 months after treatment): (65.38%)
- distribution of total score of TCM symptom: Severe, number of patients (3 months after treatment): 12
- distribution of total score of TCM symptom: Severe, percentage of patients (3 months after treatment): (0.83%)
- fatigue score 0, % of patients (3 months after treatment): (28.28%)
- fatigue score 0, number of patients (3 months after treatment): 409
- fatigue score 2, % of patients (3 months after treatment): (59.75%)
- fatigue score 2, number of patients (3 months after treatment): 864
- fatigue score 4, % of patients (3 months after treatment): (11.41%)
- fatigue score 4, number of patients (3 months after treatment): 165
- fatigue score 6, % of patients (3 months after treatment): (0.55%)
- fatigue score 6, number of patients (3 months after treatment): 8
- pale complexion score 0, number of patients (3 months after treatment): 693
- pale complexion score 0, percent of patients (3 months after treatment): (47.89%)
- pale complexion score 1, number of patients (3 months after treatment): 566
- pale complexion score 1, percent of patients (3 months after treatment): (39.12%)
- pale complexion score 2, number of patients (3 months after treatment): 172
- pale complexion score 2, percent of patients (3 months after treatment): (11.89%)
- pale complexion score 3, number of patients (3 months after treatment): 16
- pale complexion score 3, percent of patients (3 months after treatment): (1.11%)
- palpitation score 0, number of patients (3 months after treatment): 403
- palpitation score 0, percent of patients (3 months after treatment): (27.87%)
- palpitation score 2, number of patients (3 months after treatment): 759
- palpitation score 2, percent of patients (3 months after treatment): (52.49%)
- palpitation score 4, number of patients (3 months after treatment): 261
- palpitation score 4, percent of patients (3 months after treatment): (18.05%)
- palpitation score 6, number of patients (3 months after treatment): 23
- palpitation score 6, percent of patients (3 months after treatment): (1.59%)
- short breath score 0, % of patients (3 months after treatment): (21.44%)
- short breath score 0, number of patients (3 months after treatment): 310
- short breath score 3, % of patients (3 months after treatment): (59.13%)
- short breath score 3, number of patients (3 months after treatment): 855
- short breath score 6, % of patients (3 months after treatment): (18.74%)
- short breath score 6, number of patients (3 months after treatment): 271
- short breath score 9, % of patients (3 months after treatment): (0.69%)
- short breath score 9, number of patients (3 months after treatment): 10
- spontaneous perspiration score 0, number of patients (3 months after treatment): 563
- spontaneous perspiration score 0, percent of patients (3 months after treatment): (38.93%)
- spontaneous perspiration score 1, number of patients (3 months after treatment): 709
- spontaneous perspiration score 1, percent of patients (3 months after treatment): (49.03%)
- spontaneous perspiration score 2, number of patients (3 months after treatment): 167
- spontaneous perspiration score 3, number of patients (3 months after treatment): 7
- spontaneous perspiration score 3, percent of patients (3 months after treatment): (0.48%)
- total score of TCM symptom, Max (3 months after treatment): 33.00
- total score of TCM symptom, Md (3 months after treatment): 10.00
- total score of TCM symptom, Mean (3 months after treatment): 10.88
- total score of TCM symptom, Min (3 months after treatment): 0.00
- change of fatigue 0, % of patients [3]: (63.96%)
- change of fatigue 0, number of patients [3]: 923
- change of fatigue 2, % of patients [3]: (25.50%)
- change of fatigue 2, number of patients [3]: 368
- change of fatigue 4, % of patients [3]: (4.16%)
- change of fatigue 4, number of patients [3]: 60
- change of fatigue 6, % of patients [3]: (0.97%)
- change of fatigue 6, number of patients [3]: 14
- change of fatigue −2, % of patients [3]: (4.85%)
- change of fatigue −2, number of patients [3]: 70
- change of fatigue −4, % of patients [3]: (0.42%)
- change of fatigue −4, number of patients [3]: 6
- change of fatigue −6, % of patients [3]: (0.14%)
- change of fatigue −6, number of patients [3]: 2
- change of pale complexion 0, number of patients [3]: 1177
- change of pale complexion 0, percent of patients [3]: (81.68%)
- change of pale complexion 1, number of patients [3]: 217
- change of pale complexion 1, percent of patients [3]: (15.06%)
- change of pale complexion −1, number of patients [3]: 47
- change of pale complexion −1, percent of patients [3]: (3.26%)
- change of palpitation 0, number of patients [3]: 943
- change of palpitation 0, percent of patients [3]: (65.35%)
- change of palpitation 1, number of patients [3]: 356
- change of palpitation 1, percent of patients [3]: (24.67%)
- change of palpitation 2, number of patients [3]: 39
- change of palpitation 2, percent of patients [3]: (2.70%)
- change of palpitation 3, number of patients [3]: 5
- change of palpitation 3, percent of patients [3]: (0.35%)
- change of palpitation −1, number of patients [3]: 99
- change of palpitation −1, percent of patients [3]: (6.86%)
- change of palpitation −2, number of patients [3]: 1
- change of palpitation −2, percent of patients [3]: (0.07%)
- change of palpitation −3, number of patients [3]: 0
- change of palpitation −3, percent of patients [3]: (0.00%)
- change of short breath 0, % of patients [3]: (70.27%)
- change of short breath 0, number of patients [3]: 1014
- change of short breath 2, % of patients [3]: (21.41%)
